This passage reports LC50 results from ChEMBL document CHEMBL1153013, “Bio-active compounds from Euphorbia cornigera Boiss” (2009).

Converted amounts (≈) assume the structure as drawn.

The assay concerns Biomphalaria glabrata. As to the kind of experiment: Molluscicidal activity against Biomphalaria glabrata after 24 hrs. The class given is functional.
For the compound `C/C=C(\C)C(=O)O[C@@H]1C(COC(=O)c2ccccc2NC(=O)c2ccccc2N)=C[C@@H]2C(=O)[C@]3(C=C(C)[C@H](OC(C)=O)[C@@]13O)[C@H](C)C[C@@H]1[C@H]2C1(C)C`, the LC50 (as a rule, the concentration lethal to half of the exposed cells or organisms) came out at 0.0155 mg/L (≈ 0.0218 µM). For `CC(=O)OCC1=C[C@@H]2C(=O)[C@]3(C=C(C)[C@H](OC(=O)c4ccccc4NC(=O)c4ccccc4N)[C@@]3(O)[C@@H]1O)[C@H](C)C[C@@H]1[C@H]2C1(C)C`, the LC50 amounted to 0.0143 mg/L (≈ 0.0227 µM). This LC50 and that of the compound before are within 1.5-fold of each other.

Compound `C/C=C(\C)C(=O)OCC1=C[C@@H]2C(=O)[C@]3(C=C(C)[C@H](OC(C)=O)[C@@]3(O)[C@@H]1OC(=O)c1ccccc1NC(=O)c1ccccc1N)[C@H](C)C[C@@H]1[C@H]2C1(C)C` yielded an LC50 of 0.0145 mg/L (≈ 0.0204 µM).

With `C/C=C(\C)C(=O)O[C@@H]1C(COC(C)=O)=C[C@@H]2C(=O)[C@]3(C=C(C)[C@H](OC(=O)c4ccccc4NC(=O)c4ccccc4N)[C@@]13O)[C@H](C)C[C@@H]1[C@H]2C1(C)C`, the LC50 came out at 0.0135 mg/L (≈ 0.019 µM).

In turn, `C/C=C(\C)C(=O)O[C@H]1C(C)=C[C@]23C(=O)[C@@H](C=C(COC(C)=O)[C@@H](OC(=O)c4ccccc4NC(=O)c4ccccc4N)[C@]12O)[C@H]1[C@@H](C[C@H]3C)C1(C)C` came in with an LC50 of 0.0754 mg/L (≈ 0.106 µM). The value for `CC(=O)OCC1=C[C@@H]2C(=O)[C@]3(C=C(C)[C@H](OC(=O)c4ccccc4NC(=O)c4ccccc4N)[C@@]3(O)[C@@H]1OC(C)=O)[C@H](C)C[C@@H]1[C@H]2C1(C)C` was 0.0114 mg/L (≈ 0.017 µM). For the compound `CC(=O)O[C@H]1C(C)=C[C@]23C(=O)[C@@H](C=C(COC(=O)c4ccccc4NC(=O)c4ccccc4N)[C@@H](O)[C@]12O)[C@H]1[C@@H](C[C@H]3C)C1(C)C`, the LC50 turned out to be 0.0192 mg/L (≈ 0.0305 µM).

As for `CC(=O)OCC1=C[C@@H]2C(=O)[C@]3(C=C(C)[C@H](OC(C)=O)[C@@]3(O)[C@@H]1OC(=O)c1ccccc1NC(=O)c1ccccc1N)[C@H](C)C[C@@H]1[C@H]2C1(C)C`, the LC50 is 0.0183 mg/L (≈ 0.0273 µM).

In turn, `C/C=C(\C)C(=O)OCC1=C[C@@H]2C(=O)[C@]3(C=C(C)[C@H](OC(=O)c4ccccc4NC(=O)c4ccccc4N)[C@@]3(O)[C@@H]1OC(C)=O)[C@H](C)C[C@@H]1[C@H]2C1(C)C` displayed an LC50 of 0.0125 mg/L (≈ 0.0176 µM). The LC50 values of the last two compounds are within 1.5-fold of each other.

In turn, `C/C=C(\C)C(=O)O[C@H]1C(C)=C[C@]23C(=O)[C@@H](C=C(COC(=O)c4ccccc4NC(=O)c4ccccc4N)[C@@H](OC(C)=O)[C@]12O)[C@H]1[C@@H](C[C@H]3C)C1(C)C` registered a 50% lethal concentration (LC50) of 0.0615 mg/L (≈ 0.0865 µM). The value for `O=C(Nc1ccc([N+](=O)[O-])cc1Cl)c1cc(Cl)ccc1O` [NICLOSAMIDE] was 0.025 mg/L (≈ 0.0764 µM).
